ChEMBL document CHEMBL3994620, “Synthesis and antioxidant activity of a procyanidin B3 analogue” (Bioorg Med Chem Lett, 2017)

Assay: Antioxidant activity assessed as second order rate constant for galvinoxyl radical scavenging activity by UV-vis spectrophotometry
Assay type: functional

SMILES	K
CC1(C)O[C@H]2Cc3c(O)cc(O)c([C@@H]4c5c(O)cc(O)cc5O[C@H](c5ccc(O)c(O)c5)[C@H]4O)c3O[C@@H]2c2cc(O)c(O)cc21	1.89 ×10² /M/s
Oc1cc(O)c2c(c1)O[C@H](c1ccc(O)c(O)c1)[C@@H](O)C2	26 M⁻¹ s⁻¹
Oc1cc(O)c2c(c1)O[C@H](c1ccc(O)c(O)c1)[C@@H](O)[C@@H]2c1c(O)cc(O)c2c1O[C@H](c1ccc(O)c(O)c1)[C@@H](O)C2	1 ×10² /M/s
